Data: US20120264159A1, “SCREENING SYSTEM FOR MODULATORS OF HER2 MEDIATED TRANSCRIPTION AND HER2 MODULATORS IDENTIFED THEREBY” (BUCK INSTITUTE FOR AGE RESEARCH, priority 2001, published 2012)

Assays:
ErbB2 promoter = experiment: Transiently transfected (episomal) RO6pGL ErbB2 promoter-reporter in MCF-7 cells; assay type: cell-based, human; conditions: transient transfection of RO6pGL into MCF-7 cells; 0.4 μM TSA, 24 hour
Description: FIGS. 11A and 11B show trichostatin A (TSA) responsiveness and DNase I hypersensitivity comparisons between the genomically integrated vs. episomally introduced ErbB2 promoter-reporter construct, RO6pGL, in MCF-7 cells. FIG. 11A: Luciferase activity (relative luminometer units) of the MCF/RO6pGL-9 subline compared to parental MCF-7 cells transiently transfected with the same ErbB2 promoter-reporter plasmid (RO6pGL) and after 24 hour treatment with 0.4 μM TSA, normalized against their respective non-treatment (vehicle only) control conditions. FIG. 11B: DNase 1 hypersensitivity analysis (described in Methods) of nuclei from MCF/RO6pGL-9 vs. MCF-7 cells transiently transfected with RO6pGL, following similar culture treatments with TSA.
In an episomal context and following transient transfection of the RO6pGL construct into MCF-7 cells, TSA produced diametrically opposite (>10-fold stimulatory) effects on this same ErbB2 promoter-driven reporter (FIG. 11). Southern blot comparisons of DNase I treated MCF/R06pGL-9 cell nuclei and those from transfected MCF-7 cells bearing the episomally introduced R06pGL plasmid confirmed the lack of a discrete DNase-I hypersensitivity site in the episomal R06pGL and the presence of such a site in the genomically integrated R06pGL, similar in location and intensity to that found within the endogenous ErbB2 promoter (FIG. 11). […]

ErbB2 transcript = experiment: Northern blot of ErbB2 transcript levels in ErbB2 overexpressing breast cancer cells; assay type: cell-based, human
Description: The conserved and singular DNase I hypersensitivity sites found in the proximal ErbB2 and ESX promoters (12,15) were assayed as before (12). Briefly, following culture treatment of cells, nuclei isolated by mild detergent lysis in a buffer containing 10 mM Hepes pH 7.9, 1.5 mM MgCl2, 10 mM KCl, 0.4% NP-40, 10% glycerol and 1 mM DTT. Partial DNase I digestions were carried out by varying DNase I treatment times (0-15 minutes at 37( ) at a fixed DNase I concentrations (0.5-1.0 units per 10^6 nuclei). After purifying and restricting the DNA, it was electrophoresed through 0.7% agarose gels and blotted onto nylon membranes, UV-crosslinked and hybridized with randomly ^32P-labelled ErbB2 and ESX promoter probes, as similarly performed for routine Southern blotting. For Northern blotting, total (treated vs. control) cell RNA (10 μg/sample lane) was isolated using TRIzol (Invitrogen) according to manufacturer's specifications, electrophoresed into 1% agarose-formaldehyde gels and transferred onto membranes that were then hybridized with ^32P-labelled ErbB2 and ESX cDNA probes. For transcriptional run-off assays cell nuclei were first isolated from treated and control cells as described for the DNase I studies. Elongatation of initiated nascent RNA chains was performed at 37 (C for 30 minutes using ˜5×10^6 nuclei per reaction in a buffer containing 10 mM Tris pH7.5, 2.5 mM MgCl2, 150 mM KCl, 1 mM DTT, 10% glycerol, 0.5 mM ATP, GTP and CTP, and 100 μCi of [α-^32P]UTP (800 Ci/mmol). Nuclear RNA was purified by the addition of 100 units of RNase-free DNase I (Roche) per reaction for 2 minutes followed by TRIzol processing. Radiolabelled RNA was hybridized (˜4×10^6 cpm) at 68 (C in ExpressHyb (Clontech) for 24 hours to nylon filter membranes previously slotted with 0.5 μg per slot of unlabelled ErbB2 cDNA fragments (from either the transmembrane or C-terminal domains), ESX cDNA fragments, and empty plasmid control, as we have previously described (16). Filters were washed at 64 (C in 0.2 SSC and 0.5% SDS. For Western blotting, whole-cell extracts from control vs. treated cells were boiled in sample loading buffer (1% SDS, 20% glycerol, 100 mM DTT, 50 mM Tris, pH 6.8), gel lanes loaded for constant total protein (15 μg), electrophoresed into 9% sodium dodecyl sulfacte polyacrylamide (SDS-PAGE) gels, transferred onto membranes (Immobilon-P, Millipore), and the protein-bound membranes hybridized with a primary antibody followed by a horseradish peroxidase-conjugated secondary antibody (Sigma), and specific protein bands visualized by chemiluminescent substrate (Pierce), as previously described (10).

[1] = test system: ErbB2 transcript synthesis; experiment: Nuclear run-off assay of ErbB2 transcript synthesis in SKBR3 cells; assay type: cell-based, human; conditions: 5 hours, 0.4 μM TSA
Description: (§1) The conserved and singular DNase I hypersensitivity sites found in the proximal ErbB2 and ESX promoters (12,15) were assayed as before (12). Briefly, following culture treatment of cells, nuclei isolated by mild detergent lysis in a buffer containing 10 mM Hepes pH 7.9, 1.5 mM MgCl2, 10 mM KCl, 0.4% NP-40, 10% glycerol and 1 mM DTT. […]
(§2) Nuclear run-off experiments were performed on ErbB2 overexpressing breast cancer cells to confirm the conclusion drawn from TSA induced downregulation of luciferase expression in MCF/R06pGL-9 cells that HDAC inhibitors can suppress ErbB2 promoter activity and presumably also repress ErbB2 transcription. […] Slot blot hybridization stringency was adjusted so that no signal could be detected from those control slots containing the empty plasmid.

ESX mRNA synthesis = experiment: Nuclear run-off assay of ESX mRNA synthesis in SKBR3 cells; assay type: cell-based, human; conditions: 5 hours, 0.4 μM TSA
Description: as §1, §2

ErbB2 protein = experiment: Western blot of 185 kDa ErbB2 protein levels in breast cancer cell lines; assay type: cell-based, human
Description: The conserved and singular DNase I hypersensitivity sites found in the proximal ErbB2 and ESX promoters (12,15) were assayed as before (12). Briefly, following culture treatment of cells, nuclei isolated by mild detergent lysis in a buffer containing 10 mM Hepes pH 7.9, 1.5 mM MgCl2, 10 mM KCl, 0.4% NP-40, 10% glycerol and 1 mM DTT. Partial DNase I digestions were carried out by varying DNase I treatment times (0-15 minutes at 37( ) at a fixed DNase I concentrations (0.5-1.0 units per 10^6 nuclei). After purifying and restricting the DNA, it was electrophoresed through 0.7% agarose gels and blotted onto nylon membranes, UV-crosslinked and hybridized with randomly ^32P-labelled ErbB2 and ESX promoter probes, as similarly performed for routine Southern blotting. For Northern blotting, total (treated vs. control) cell RNA (10 μg/sample lane) was isolated using TRIzol (Invitrogen) according to manufacturer's specifications, electrophoresed into 1% agarose-formaldehyde gels and transferred onto membranes that were then hybridized with ^32P-labelled ErbB2 and ESX cDNA probes. For transcriptional run-off assays cell nuclei were first isolated from treated and control cells as described for the DNase I studies. […]

RO6 HER2 promoter = experiment: Basal promoter activity of MCF-7b stable RO6 populations; assay type: cell-based, human; conditions: 10 nM, 24 hours, serum-free media, clone and polyclonal populations
Description: Parental cell lines MCF-7, and MDA-453 were transfected with the construct Ro6pGL (FIG. 2) in conjunction with pcMneo construct using lipid-based transfection (Effectene) at a ratio of 20:1 reporter:selectable marker (see, FIG. 4). Monoclonal and polyclonal populations were selected in 0.5 mg/ml G418 over 2 to 4 weeks.
Reporter activity was assayed as follows: From T-150 or T-75 culture flasks, about […] cells/well were plated into a 96 well plate format for high-throughput screening. 24 hours post plating a test agent e.g. a drug from a combinatorial library, was added to the wells at various concentrations. Certain wells were used as controls (e.g. PBS or DMSO vehicle only). Replicate wells ([…] per drug concentration) were run. 24 hours after addition of the test agent the cells were lysed, a luciferase reagent was added and activity in each well was read using a high-throughput screening plate reader (labsystems Fluoroskan). Parallel plates were run for cell viability using an MTT assay (Sigma).

[2] = test system: NCI panel of 60 human cancer cell lines; conditions: NCI/DTP screen, 60 human cancer cell line panel; read-out: median cytotoxic concentration (LC50); cited from earlier work

## CC(/C=C/C(=O)NO)=C\[C@@H](C)C(=O)c1ccc(N(C)C)cc1 [TSA, trichostatin A]
ErbB2 promoter
  effect on episomal ErbB2 promoter-driven reporter (stimulation): > 10 fold
ErbB2 transcript; 8 hour TSA treatment, Northern assays (data not shown)
  ErbB2 transcript levels relative to control: < 20 % of control
ErbB2 transcript; MDA-453 and BT-474 cells, similar TSA treatment (data not shown)
  ErbB2 transcript levels: Virtually complete elimination of ErbB2 transcript levels
ErbB2 transcript; SKBR3 cells, 5 hours treatment, TSA 0.05 or 0.40 μM, Act D 10 μg/ml
  ErbB2 mRNA level / decay: greatly enhanced the rate of ErbB2 mRNA decay
ErbB2 transcript; SKBR3 cells, 24 hours, 0.4 μM TSA
  ErbB2 transcript levels: near total disappearance of ErbB2 transcripts
[1]
  synthesis of new ErbB2 transcripts: profoundly suppresses synthesis of new ErbB2 transcripts
ESX mRNA synthesis
  ESX mRNA synthesis: preserves ESX mRNA synthesis
ErbB2 protein; MCF/HER2-18 cells (CMV promoter), same TSA treatment conditions
  ectopic 185 kDa ErbB2 protein level: further stimulated
ErbB2 protein; SKBR3, MDA-453 and BT-474 cells, 24 hour, 0.4 μM TSA
  endogenous 185 kDa ErbB2 protein levels (normalized to α-tubulin): marked decline
RO6 HER2 promoter
  basal promoter activity: decreased basal promoter activity
[2]
  CC50: > 10 µM
